Test results taken from patent publication US20040202647A1, “Compositions and methods related to nitrotyrosine - containing compounds as antigenic agents” (priority 2002, published 2004).
Like-named read-outs stand apart in the source and are kept apart here.

Test system: splenocytes from naïve C57BI/6 mice
Type: cell-based
Settings: naïve splenocytes plus RMA-S pulsed with 10 uM peptide, IL-2 added after 4 days

In the case of “KAVYNFATM [non-nitrated LCMV gp33 peptide]”, the “outgrowth of CD8^+ T cells” value is reported as “not” and the “outgrowth of CD8^+ T cells” value (listed as conventional gp33-41 peptide) is reported as “not observed”.
